Experimental data published in patent publication US20020010317A1, “Method for generating immunogens that elicit neutralizing antibodies against fusion-active regions of HIV envelope proteins” (priority 2000, published 2002).

Assays:
[1] = system: divergent HIV-1 virus isolates; assay: immunization of guinea pigs with P-18, neutralizing antibody response; assay type: in vivo, guinea pig; settings: two of three animals; 100 μg intramuscularly in Freund's adjuvant
Method: Antibody binding assays can be used to determine the ability of the immunogen vaccines to generate an immune response to various forms of envelope (native vs. denatured). Virus neutralization assays can be used to characterize the antibody response raised against the gp41 domains. The most encouraging results have been from animals immunized with the peptide P-18 modeling the C-helix entry domain (amino acid residues 643-678 of gp41 ).
Guinea pigs were immunized intramuscularly with 100 μg of P-18 formulated in either Freund's complete (prime) or incomplete (boost) adjuvant. Animals were immunized on days 0, 21, 34, 48 and 62. Blood was collected on days 44,58 and 72. In our initial screen, sera at a 1:10 dilution were tested for the ability to inhibit virus-induced cell killing. In these assays, two of the three animals receiving the P-18 peptide (guinea pigs 233 and 234) were able to block the cytopathic effects of a pair of prototypic HIV-1 isolates. Against the MN isolate, >80% protection was achieved, while against the RF isolate, protection was >50%.

[2] = system: HIV-1 envelope mediated cell-cell fusion; settings: cited from earlier work
gp41 (HXB2 strain) = gp41 (HXB2 strain) (Human immunodeficiency virus type 1 group M subtype B, UniProt P04578)
Sequence of gp41 (HXB2 strain) (P04578 512-856): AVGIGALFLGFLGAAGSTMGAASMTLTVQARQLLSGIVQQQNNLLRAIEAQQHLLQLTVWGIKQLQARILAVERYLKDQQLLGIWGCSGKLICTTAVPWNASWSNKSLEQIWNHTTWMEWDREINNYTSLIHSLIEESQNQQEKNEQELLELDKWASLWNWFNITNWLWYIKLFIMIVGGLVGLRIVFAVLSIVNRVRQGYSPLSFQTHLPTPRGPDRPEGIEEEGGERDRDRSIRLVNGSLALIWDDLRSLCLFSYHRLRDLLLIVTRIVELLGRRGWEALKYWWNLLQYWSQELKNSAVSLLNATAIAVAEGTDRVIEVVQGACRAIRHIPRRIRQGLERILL

enfuvirtide
neutralizing antibody response in immunized animals [1]: exhibited a neutralizing antibody response against divergent virus isolates
concentration inhibiting envelope mediated cell-cell fusion ([2]; concentrations as low as): about 1 ng/ml

P-18-GGG-YPYDVPDYAGPG [P-18HA]
binding to and co-immunoprecipitation of gp41 (gp41 (HXB2 strain)): bound to and co-immunoprecipitated gp41

NNLLRAIEAQQHLLQLTVWQIKQLQARILAVERYLKDQ (NNLLRAIEAQQHLLQLTVWGIKQLQARILAVERYLKDQ) [DP-107]
level inhibiting cell-cell fusion [2]: sub-μg/ml levels
